Assays:
Format in all cases: cell-based
SKOV3 cells = assay: SKOV3 soft agar colony growth assay; conditions: Homo sapiens, SK-OV-3, 336 h, Table V, colony growth 2 weeks, read-out: Estimated IC50 Growth Assays SKOV3 cells
From the text: (§1) This example illustrates the ability of the exemplary compounds to inhibit receptor tyrosine kinases, such as HER2 and/or EGFR. The following target cells were used for cellular kinaseassays: NIH3T3 clone C7 (Honegger et al., supra) engineered to over-express human EGF receptor; NIH3T3 cells engineered to over-express a chimeric receptor containing the EGFR extracellular domain and the HER2 intracellular kinase domain; the human mammary carcinoma line BT474 (ATCC HTB2) expressing HER2; and the human glioblastoma line U1242 that expresses PDGFR-β. Growth assays were carried out using human mammary epithelial SKBR3 (ATCC HTB30) cells, SKOV3 (ATCC HTB77) human ovarian cancer cell line, A431 cells, MCF7 human breast carcinoma cells, MCF7 cells overexpress the HER2 kinase (MCF7-HER2), NIH3T3 cells, and NIH3T3 cells overexpressing the HER2 kinase (3T3-HER2).
SKOV3 cells also over-express HER2. These cells were plated into soft agar with a test compound and colony growth was quantified 2 weeks. later using an Omnicon colony counter.
6. Soft Agar Assay Protocol
The soft agar assay is well known in the art as a method for measuring the effects of substances on cell growth. Unless otherwise stated the soft agar assays were carried out as follows:
(1) A Water bath set at 39° C. and another water bath at 37° C.
(2) 2×assay medium is comprised of 2×Dulbecco's Modified Eagle's Medium (DMEM) (Gibco Cat. #CA400-4ANO3) supplemented by the following:
20% Fetal Bovine Serum (FBS)
Non-essential Amino Acids (1:50 from 100×stock)
(3) 1×assay medium made of 1×DMEM supplemented with 10% FBS, 1 mM sodium pyruvate, 2 mM glutamine, 10 mM HEPES, non-essential amino acid (1:100 from 100×stock).
(4) 1.6% SeaPlaque Agarose in autoclave bottle
(5) Sterile 35 mm Corning plates (FMC Bioproducts Cat. #50102)
(6) Sterile 5 ml glass pipets (individually wrapped)
(7) Sterile 15 ml and 50 ml conical centrifuge tubes
(8) Pipets and sterile tips
(9) Sterile microcentrifuge tubes
(10) Cells in T75 flasks: SKOV-3 (ACTT HTB77).
(12) Procedure for making the base layer:
(a) Have all the media warmed up in the 37° C. water bath.
(b) To make 1×of assay medium+0.8% agar: make a 1:2 (vol:vol) dilution of melted agar (cooled to 39° C.), with 2×assay medium.
(c) Keep all media with agar warm in the 39° C. water bath when not in use.
(d) Dispense 1 ml of 1×assay medium+0.8% agar into dishes and gently swirl plate to form a uniform base layer. Bubbles should be avoided.
(e) Refrigerate base layers to solidify (about 20 minutes). Base layers can be stored overnight in the refrigerator.
(13) Procedure for collecting cells:
(a) Take out one flask per cell line from the incubator; aspirate off medium; wash once with PBS and aspirate off; add 3 ml of trypsin solution. […]
(d) Colonies that are 60 microns and larger are scored positive.

SKBR3 cells = assay: SKBR3 growth assay (sulphorhodamine B); conditions: Homo sapiens, SK-BR-3, 96 h; Table V; 4 days, SRB; read-out: Estimated IC50 Growth Assays SKBR3 cells
From the text: as §1
SKBR3 cells over-express HER2. A431 cells over-express EGFR. These cells were dispensed into 96-well plates with test compounds. After 4 days the monolayers were TCA-fixed then stained with sulphorhodamine B. The absorbance versus log drug concentration was plotted and IC50 values estimated.
(4) Tris, crystallized free base—Fisher Catalog #BP152 Working solution: 10 mM tris=1.211 gram Trizma base/liter H2O.
(5) Aspirate growth media from 96 well plate containing control cells or cell treated with compounds, rinse wells 2 or 3 times with PBS and layer 200 μl cold 10% TCA onto each well. Fix cells for 60 minutes at 4° C.
(6) Discard TCA and rinse wells 5 times with distilled H2O. Dry plate upside down on paper towel.
(7) Stain fixed cells for 10 minutes with 100 μl 0.4% SRB per well.
(8) Pour off SRB solution and rinse wells 5 times with 1% acetic acid.
(9) Dry plate upside down on paper towel.
(10) After wells are completely dry, solubilize dye with 100 μl 10 mM Tris base per well for 5-10 minutes on titer plate shaker.
(11) Read optical density at dual wavelength mode 570 nm and 630 nm on Dynatech ELISA plate reader, Model MR 5000.

PDGFR-β = biological target: T1, PDGFR-β (Homo sapiens, UniProt P09619); assay: PDGFR-β cellular kinase assay (U1242 cells); conditions: Table V, read-out: Estimated IC50 Cellular Kinase Assays PDGFR-β
T1 construct: the human glioblastoma line U1242 that expresses PDGFR-β; endogenous in cells; host or cells: U1242 human glioblastoma cells
From the text: as §1

T1 sequence (P09619 33-1106): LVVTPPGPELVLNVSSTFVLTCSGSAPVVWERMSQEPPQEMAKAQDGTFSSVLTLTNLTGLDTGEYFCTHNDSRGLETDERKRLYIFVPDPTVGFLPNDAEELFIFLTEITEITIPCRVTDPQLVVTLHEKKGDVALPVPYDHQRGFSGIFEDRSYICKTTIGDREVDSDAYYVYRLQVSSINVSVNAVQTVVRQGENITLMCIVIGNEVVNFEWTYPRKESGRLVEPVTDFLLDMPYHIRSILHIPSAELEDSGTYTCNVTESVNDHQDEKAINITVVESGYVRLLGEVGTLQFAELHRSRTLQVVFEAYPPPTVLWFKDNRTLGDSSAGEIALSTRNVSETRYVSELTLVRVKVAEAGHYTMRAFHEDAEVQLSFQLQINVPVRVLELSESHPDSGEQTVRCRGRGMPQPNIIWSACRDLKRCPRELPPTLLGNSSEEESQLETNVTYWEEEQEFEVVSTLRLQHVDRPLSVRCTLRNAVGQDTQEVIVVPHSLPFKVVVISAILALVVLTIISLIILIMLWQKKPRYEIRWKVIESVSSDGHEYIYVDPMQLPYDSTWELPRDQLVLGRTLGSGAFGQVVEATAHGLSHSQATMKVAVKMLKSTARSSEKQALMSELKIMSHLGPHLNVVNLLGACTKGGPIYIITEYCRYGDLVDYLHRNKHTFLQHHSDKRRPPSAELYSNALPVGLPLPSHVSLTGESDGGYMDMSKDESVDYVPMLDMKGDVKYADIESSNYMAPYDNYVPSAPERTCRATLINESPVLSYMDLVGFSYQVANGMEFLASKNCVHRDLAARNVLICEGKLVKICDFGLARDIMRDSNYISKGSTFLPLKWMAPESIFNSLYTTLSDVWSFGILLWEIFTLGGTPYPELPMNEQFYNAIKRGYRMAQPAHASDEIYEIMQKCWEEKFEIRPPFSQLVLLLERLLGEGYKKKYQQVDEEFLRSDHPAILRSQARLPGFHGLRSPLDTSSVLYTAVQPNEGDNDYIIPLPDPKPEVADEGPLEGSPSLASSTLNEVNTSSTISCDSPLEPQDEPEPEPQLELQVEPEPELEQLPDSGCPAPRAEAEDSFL

| IC50 (SKOV3 cells) [µM] | IC50 (SKBR3 cells) [µM] | IC50 (PDGFR-β) [µM] | Compound |
| --- | --- | --- | --- |
| 0.5 | 4 | > 100 | CC(C)(C)c1cc(/C=C(\C#N)C(N)=S)cc(C(C)(C)C)c1O [Compound M11] |
| 20 | 25 | 60 | N#C/C(=C\c1ccc(O)c(O)c1)C(=S)NCc1ccccc1 [Compound M13] |
| 17 | 20 | – | N#C/C(=C\c1ccc(O)c(O)c1)C(=O)Nc1cccc(C(F)(F)F)c1 [Compound M15] |
| 4.5 | 9 | 35 | N#C/C(=C\c1cc(O)c(O)c(I)c1)C(=O)NCCCc1ccccc1 [Compound M16] |

Reference: patent US6596878B2, “Methods and compositions for inhibiting cell proliferative disorders” (Yissum Research & Development Company of the Hebrew …, priority 1994, dated 2003)
